Each molecule was assayed on corn leaf discs (variety Multitop) (assay: Dark induced senescence of corn leaf). Settings: Zea mays, foliar, 192 h, 100 μM-0.0001 μM, 0.5% DMSO, 23° C., 8 days, image analysis, read-out: IC50 (concentration at which 50% senescence was achieved), dark induced senescence of corn leaf.
Protocol: It is known that strigolactones regulate (accelerate) leaf senescence, potentially through D14 receptor signaling. Corn plants of variety Multitop were grown in a greenhouse with relative 75% humidity and at 23-25° C. for 6 weeks. 1.4 cm diameter leaf discs were placed into 24-well plates containing test compounds in a concentration gradient (100 μM-0.0001 μM) at a final concentration of 0.5% DMSO. Each concentration was tested in 12 replicates. Plates were sealed with seal foil. The foil was pierced to provide gas exchange in each well. The plates were placed into the completely dark climatic chamber. Plates were incubated in the chamber with 75% humidity and at 23° C. for 8 days. On days 0, 5, 6, 7 and 8 photographs were taken of each plate, and image analysis conducted with a macro developed using the ImageJ software. The image analysis was used to determine the concentration at which 50% senescence was achieved (IC50), see Table 4. The lower the value, the higher senescence induction potency.

SMILES	IC50 [nM]
CC1=C(C)C(O/C=C2/C(=O)OC3Sc4ccccc4C23)OC1=O (centres unmarked) [Compound I-8, (1E)-1-[(3,4-dimethyl-5-oxo-2H-furan-2-yl)oxymethylene]-3a,8b-dihydrobenzothiopheno[2,3-b]furan-2-one]	40
CC1=CC(O/C=C2/C(=O)OC3Oc4ccccc4C23)OC1=O (centres unmarked) [Compound I-1, (1E)-1-[(4-methyl-5-oxo-2H-furan-2-yl)oxymethylene]-3a,8b-dihydrofuro[2,3-b]benzofuran-2-one]	30
CC1=CC(O/C=C2/C(=O)OC3COc4ccccc4C23)OC1=O (centres unmarked) [Compound I-31, (1E)-1-[(4-methyl-5-oxo-2H-furan-2-yl)oxymethylene]-4,9b-dihydro-3aH-furo[2,3-c]chromen-2-one]	30

The next molecules have a lower IC50 than those just listed; values first:

IC50 [nM]	SMILES
15	CC1=C(C)C(O/C=C2/C(=O)OC3Oc4ccccc4C23)OC1=O (centres unmarked) [Compound I-2, (1E)-1-[(3,4-dimethyl-5-oxo-2H-furan-2-yl)oxymethylene]-3a,8b-dihydrofuro[2,3-b]benzofuran-2-one]
15	CC1=CC(O/C=C2/C(=O)OC3C2c2ccccc2[S+]3[O-])OC1=O (centres unmarked) [Compound I-13, (1E)-1-[(4-methyl-5-oxo-2H-furan-2-yl)oxymethylene]-4-oxo-3a,8b-dihydrobenzothiopheno[2,3-b]furan-2-one]
